From patent US6989396B2, “Tropane alkaloid multidrug resistance inhibitors from Erythroxylum pervillei and use of the same” (The Board of Trustees of the University of Illinois, priority 2001, dated 2006)
Entries after “also recorded” stand apart in the source; their conditions may differ. Read-outs that look alike come from different tables or passages of the source.

Legend:
[1] = tested on: SKVLB (ovarian adenocarcinoma, multidrug resistance); test: Multidrug resistance inhibition in SKVLB (pGp +ve); format: cell-based, human
MDR1 mRNA = test: RT-PCR analysis of MDR1 mRNA expression; format: cell-based, human; details: KB-V1 and CEM/VLB100 cells, 72 hours; pervilleine A up to 34 μM (up to 45 μM), verapamil up to 44 μM
Description: RT-PCR analysis of MDR1 mRNA expression. […] Total RNA was isolated from cultured KB-3, KB-V1, CEM and CEM/VLB100 cells with TRIzol reagent (Life Technologies, Inc.) (33), and quantified by UV absorbance. The reverse transcription of RNA was performed by using the SUPERScript™ Preamplification System (Life Technologies, Inc.) in a final volume of 21 μl containing 5×First Strain Synthesis Buffer, 2.5 mM MgCl2, 0.5 mM each dNTP, […], 2 units of RNAse inhibitor, 200 units of Super-Scrip II reverse transcriptase, 0.5 μg oligo (dT)12-18, 2 μg of total RNA (3 μg for CEM and CEM/VLB100 cells), and DEPC-treated water. After incubation at 42° C. for 50 minutes, the room temperature reaction was terminated by heating to 70° C. for 15 minutes. To the newly synthesized cDNA (2 μl), a PCR mixture containing 1.4 mM MgCl2 (1.2 mM for CEM and CEM/VLB100 cells), 2.5 units of Taq polymerase, 0.2 μmol (0.6 μmol for CEM and CEM/VLB100 cells) of primers based on the MDR1 gene (35) and custom synthesized by Ana-Gen Technology, Inc. (Palo Alto, Calif.) (5′-[…]-3′; 5′-[…]-3′) (35). As an internal control, 0.125 μmol (0.1 μmol for CEM and CEM/VLB100 cells) of primers for GAPDH (5′-[…]-3′; 5′-[…]-3′) (36) were added (final volume to 50 μl). […]

For `COc1cc(C=CC(=O)O[C@H]2[C@@H](O)[C@@H]3C[C@H](OC(=O)c4cc(OC)c(OC)c(OC)c4)C[C@H]2N3C)cc(OC)c1OC` [Compound 3, 3α-(3,4,5-trimethoxybenzoyloxy)-6β-(3,4,5-trimethoxycinnamoyloxy)-7β-hydroxytropane], the IC50 ([1]; Homo sapiens, read-out: IC50 BSKVLB (pGp + ve)) was > 10000 nM, the IC50 ([1]; read-out: IC50 SKVLB (pGp + ve), addition of adriamycin, Addition of 1 μm adriamycin) was 650 nM and the “effect on MDR1 mRNA (transcription of MDR1)” value (MDR1 mRNA) was “no significant effect; also recorded: did not significantly alter; also recorded: did not significantly affect”.
